Results from US6495538B2, “Zinc ionophores as therapeutic agents” (Zinc Therapeutics, Canada Inc., priority 1999, dated 2002).

Legend:
[1] = test system: cultured HUVEC, isolated cardiac myocytes, and cultured cerebellar neurons; test: Zinc ionophore screening with Fura-2 loaded cells; assay type: cell-based, human, rabbit, mouse; settings: for zinc ionophore activity: 1 μM zinc-complexed holo-ionophore, slope of Fura-2 fluorescence ratio 340/380 nm
Procedure: Human umbilical vein endothelial cells (HUVEC) were purchased from Clonetics (San Diego, Calif.) and passages 2-4 were used for these studies. Cells were cultured on flame-sterilized glass coverslips in Endothelial Basal Medium (Clonetics) supplemented with 10 ng/ml human recombinant epidermal growth factor, 1.0 ug/ml hydrocortisone, 50 ug/ml gentamicin, 50 ng/ml amphotetericin B, 12 ug/ml bovine brain extract and 2% v/v fetal bovine serum (all from Clonetics), in a humidified chamber at 37° C. and 5% CO2. To maintain cell populations, proliferating HUVEC were passaged at 80-90% confluency.
Cardiac myocytes were isolated from the ventricular septum of adult rabbit hearts, following collagenase digestion, in a manner similar to that described previously (Turan, B. et al., (1997) Am. J. Physiol. 272:H2095-H2106). The modification consisted of introducing low concentrations of CaCl2 during the perfusion with collagenase and the dispersion of the myocytes. Hearts were perfused for about 2 min by gravity under a hydrostatic pressure of 1 m, with a nominally Ca^2+-free solution containing (in mM): NaCl, 145; KCl, 5; MgSO4, 1.2; Na2HPO4, 1.8; HEPES, 5; glucose, 10; pH adjusted to 7.4 with NaOH. Forty ml of this perfusate were then supplemented with collagenase (1 mg/ml) and perfusion was continued with recirculation. […] The flow rate was then adjusted to 15 ml/min and 50 μM CaCl2 was added to the collagenase solution. Perfusion with this solution was continued for another 15 to 18 min, followed by a 2 min washout of the enzyme with fresh perfusate containing 100 μM CaCl2 and no collagenase. The hearts were then removed from the apparatus and the ventricular septum isolated and minced. Dissociation of the cells was obtained by gentle agitation of the minced tissue in 50 ml of the same perfusing solution. Following filtration through a 200 μm nylon mesh, the cells were allowed to settle and the supernatant was replaced with a solution containing 2 mM CaCl2. Cells were kept at 37° C. in this pre-oxygenated solution and were studied within 8 hours after isolation, cellular viability was ensured by regularly replacing the incubation solution.
Primary cultures of mouse cerebellar granule neurons were obtained from dissociated cerebella of postnatal day 8 or 9 mice according to the following protocol (Cregan et al., (1999) J. Neurosci. 19:7860-7869, incorporated herein by reference). Brains were removed and placed into separate dishes containing solution A (124 mM NaCl, 5.37 mM KCl, 1 mM NaH2 PO4 , 1.2 mM MgSO4 , 14.5 mM D-(1)-glucose, 25 mM HEPES, 3 mg/ml BSA, pH 7.4) in which the cerebella were dissected, meninges removed, and tissue sliced into small pieces. The tissue was briefly centrifuged and transferred to solution A containing 0.25 mg/ml trypsin, then incubated at 37° C. for 18 min. After the addition of 0.082 mg/ml trypsin inhibitor (Boehringer Mannheim, Indianapolis, IN) and 0.25 mg/ml DNase I (Boehringer Mannheim), the tissue was incubated at 25° C. for 2 min. After a brief centrifugation, the resulting pellet was gently titrated in solution A yielding suspension that was further incubated for 10 min at 25° C. in solution A containing 2.7 mM MgSO4 and 0.03 mM CaCl2. After a final centrifugation the pellet was resuspended in EMEM media (Sigma, St. Louis, Mo.) containing 10% dialyzed FBS (Sigma), 25 mM KCl, 2 mM glutamine (Life Technologies BRL, Gaithersburg, Md.), 25 mM glucose, and 0.1 mg/ml gentamycin (Sigma) and filtered through a cell strainer (size 70 μm; Falcon). Cells were plated on glass coverslips coated with poly-D-lysine (Sigma) in Nunc four-well dishes at a density of 1.5×10^6 cells per milliliter of medium. Cytosine-β-arabinoside (10 μM; Sigma) was added 24 hr after plating.
In order to ascertain that the transported ion was indeed Zn^2+, and not some other divalent cation contaminant, the test compounds were first complexed with zinc.

PTZ-induced seizures = test: Subcutaneous PTZ (pentylenetetrazole) test; assay type: in vivo, rat; settings: 62.5 nmol/kg i.p.
Description: The ability of a test compound to inhibit PTZ-induced clonic and tonic convulsions is currently regarded as predictive of efficacy against “absence” seizures and/or myoclonic seizures (Suzdak, Jansen, 1995, Epilepsia, 36(6):612-626). The pharmacological profile of the PTZ test varies depending on the endpoint selected: PTZ can produce myoclonic jerks, repeated clonic seizures of forelimbs and hindlimbs with and without loss of righting reflex, and loss of righting reflex followed by tonic extension of the forelimbs and hind limbs. To have the full picture of the PTZ-induced seizures and of the effects of zinc ionophores, and to make the model more discriminative (White at al., supra) the behavioral reaction of each rat was monitored for a period of 2 hours which is much longer than the usual time period in conventional screening experiments.
PTZ (120 mg/kg) was administered subcutaneously to male Wistar rats (300-450 g). Zinc ionophores were injected i.p. in one bolus, 30 min before PTZ at a dose of 62.5 nmol/kg and a total volume of 0.25-0.4 ml.

PC12 cells = test: Differentiated PC12 cells, H2O2-induced apoptosis; assay type: cell-based, rat; settings: concentrations equivalent to those of zinc-pyrithione; not shown
Description: Control cells were pretreated with the carrier DMSO alone.

[2] = test system: Human umbilical vein endothelial cells (HUVEC)
Procedure: Human umbilical vein endothelial cells (HUVEC) were purchased from Clonetics (San Diego, Calif.) and used from passages 2-4. Cells were cultured on gelatin-coated culture dishes in Endothelial Basal Medium (Clonetics) supplemented with 10 ng/ml human recombinant epidermal growth factor, 1.0 ug/ml hydrocortisone, 50 ug/ml gentamicin, 50 ng/ml amphotetericin B, 12 ug/ml bovine brain extract and 2% v/v fetal bovine serum, in a humidified chamber at 37° C. and 5% CO2. To maintain cell populations, proliferating HUVEC were passaged at 80-90% confluency.
HUVEC were grown to confluency, and then given an additional 24 hours to achieve quiescence prior to experimental treatment. The following treatments were performed:
The cells were washed twice with 37° C. D-PBS and then irradiated in fresh media. Irradiated cells received a dose of 1000 Rads of gamma-irradiation from a ^137Cesium source (Atomic Energy of Canada). The cells were then incubated for 2 hours (cytosolic and nuclear protein extraction) or 8 hours (Hoechst staining and DNA electrophoresis).
Cells were grown on round, gelatin coated 12 mm glass coverslips, and following treatment, were fixed with 0.5 ml of 1% glutaraldehyde in PBS for 10 minutes at room temperature (RT). […] The nuclear morphology of the cells was then visualized under a Zeiss Axiophot fluorescence microscope.

`Oc1c(I)cc(I)c2cccnc12.[Zn]` [ZDIHQ, zinc 5,7-diiodo-8-hydroxyquinoline] was tested, and the zinc ionophore activity [1] was 5,7-Diiodo-8-hydroxyaquinoline ✓✓, the “ionophore activity compared between cell types” value ([1]; HUVEC, cardiac myocytes, cerebellar neurons) was “comparable in all three cell types tested” and the “latency of clonus with loss of righting reflex” value (PTZ-induced seizures; M ± S.E.M.) was 21.2 ± 2.7 min. The “latency of clonus without loss of righting reflex” value (PTZ-induced seizures; M ± S.E.M.) was 15.6 ± 1.7 min, the “latency of tonic seizure” value (PTZ-induced seizures; M ± S.E.M.) was 28.4 ± 4.1 min and the “increase of survival time (mean time to death) of non-survivors” value (PTZ-induced seizures; rats which died within 2 h) was 1.6 fold.
In the case of `Oc1cccc2cccnc12` [8-Hydroxyquinoline], the zinc ionophore activity [1] is reported as 8-Hydroxyquinoline, ✓.
For `[Zn+2]` [Zn^2+], the “apoptosis of H2O2-treated cells” value (PC12 cells) was “did not block apoptosis”.
With `CC1=C(/C=C/C(C)=C/C=C/C(C)=C/CO)C(C)(C)CCC1` [Vitamin A (all-trans-retinol), all-trans-retinol] the zinc ionophore activity [1] was “Vitamin A (all-trans-retinol) ✓”.
`CCN(CC)C(=S)SSC(=S)N(CC)CC` [Disulfiram] was tested, and the zinc ionophore activity [1] was “Disulfiram ✓✓”.
In the case of `COc1ccc2c(c1)c(CC(=O)O)c(C)n2C(=O)c1ccc(Cl)cc1` [Indomethacin], the zinc ionophore activity [1] is reported as “Indomethacin ✓”.
With `[Na+].[O-][n+]1ccccc1[S-]` [sodium-pyrithione] the “apoptosis in irradiated HUVEC” value ([2]; 1000 Rads gamma-irradiation, 8 hours) was “not effective” and the “apoptosis caused in control cultures” value ([2]; non-irradiated HUVEC) was “No apoptosis”.
`S=C(S)N1CCCC1` [Pyrrolidinedithiocarbamate] was tested, and the zinc ionophore activity [1] was “Pyrrolidinedithiocarbamate ✓✓”.
With `Cc1c(C)c2c(c(C)c1O)CC[C@@](C)(CCC[C@H](C)CCC[C@H](C)CCCC(C)C)O2` [Vitamin E (alpha-tocopherol), alpha-tocopherol] the zinc ionophore activity [1] was “Vitamin E (alpha-tocopherol) ✓”.
